From patent US11214803B2, “Modulators of YAP1 expression” (Ionis Pharmaceuticals, Inc., priority 2019, dated 2022)
Strand notation (5' to 3'): a small letter for the sugar, then the base; units joined by * are phosphorothioate-linked, units joined directly phosphodiester-linked; [ ] holds rarer units or linkages, { } end groups; capitals alone tell only the bases. k = constrained ethyl (cEt); [5mC] = 5-methylcytosine; d = 2'-deoxy (DNA)

These substances were tested on Yap1 mRNA (assay: Antisense inhibition of human Yap1 in A-431 cells by cEt gapmers, single dose (Example 4, RTS4814)). Conditions: Table 14; A-431 cells, 5,000 cells per well, free uptake, 2,000 nM, approximately 48 hours; RTS4814; normalized to RIBOGREEN; Yap1 mRNA relative to untreated control; * = targets amplicon region of primer probe set.
Assay type: cell-based
Summary of the method: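 Values are % UTC: Yap1 mRNA by quantitative RT-PCR, normalized to RIBOGREEN total RNA. Cells were exposed ~48 h to 2,000 nM oligonucleotide without transfection. Oligonucleotides were 16-nucleoside gapmers with three cEt nucleosides per wing, ten-deoxy gap, P=S linkages throughout.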
For “1076224 (kT*kA*kT*dA*dA*dA*d[5mC]*d[5mC]*dT*dT*dG*d[5mC]*dT*kA*k[5mC]*kA; antisense) [Compound 1076224]”, the “YAP1 (% UTC)” value was 67 % UTC.
With “1076480 (antisense kG*kT*kA*dA*dA*dT*dA*dT*d[5mC]*d[5mC]*dA*dT*dT*kA*k[5mC]*k[5mC]) [Compound 1076480]” the “YAP1 (% UTC)” value was 72 % UTC.
For “1074496 (kA*kA*kT*dA*dA*d[5mC]*d[5mC]*dA*dT*d[5mC]*d[5mC]*d[5mC]*dA*kA*kG*k[5mC]; antisense) [Compound 1074496]”, the “YAP1 (% UTC)” value was 69 % UTC.
For “1075616 (kG*kT*kA*dA*dA*dA*d[5mC]*d[5mC]*dG*dA*dT*dT*dT*kT*kT*k[5mC]; antisense) [Compound 1075616]”, the “YAP1 (% UTC)” value was 46 % UTC.
“1076096 (kA*kA*kT*dA*dA*dT*dA*dA*dA*d[5mC]*dG*dA*dT*kT*k[5mC]*kT; antisense) [Compound 1076096]” was tested, and the “YAP1 (% UTC)” value was 71 % UTC.
For “1075072 (antisense kT*k[5mC]*k[5mC]*dG*dG*dG*dT*dA*dA*dA*dT*dA*dT*k[5mC]*kT*k[5mC]) [Compound 1075072]”, the “YAP1 (% UTC)” value was 37 % UTC.
With “1075232 (antisense kA*kT*kT*dT*dA*dT*d[5mC]*dA*dG*d[5mC]*d[5mC]*dA*dT*kT*kG*kT) [Compound 1075232]” the “YAP1 (% UTC)” value was 13 % UTC.

Same assay, conditions: Table 15; A-431 cells, 5,000 cells per well, free uptake, 2,000 nM, approximately 48 hours; RTS4814; normalized to RIBOGREEN; Yap1 mRNA relative to untreated control; * = targets amplicon region of primer probe set
For “1074657 (antisense kT*k[5mC]*k[5mC]*d[5mC]*d[5mC]*d[5mC]*d[5mC]*dA*dG*dA*d[5mC]*dT*dT*kA*kA*kT) [Compound 1074657]”, the “YAP1 (% UTC)” value was 59 % UTC.
With “1075169 (antisense kA*kA*kA*dA*d[5mC]*dG*dG*dA*dG*dT*dA*dA*dT*kG*k[5mC]*k[5mC]) [Compound 1075169]” the “YAP1 (% UTC)” value was 39 % UTC.
In the case of “1076513 (antisense k[5mC]*kA*kT*dT*dA*dA*d[5mC]*dA*d[5mC]*dT*d[5mC]*d[5mC]*dT*k[5mC]*kA*kG) [Compound 1076513]”, the “YAP1 (% UTC)” value is reported as 36 % UTC.
For “1074145 (antisense kA*kA*kG*d[5mC]*dG*dG*d[5mC]*dG*dA*d[5mC]*dG*dG*d[5mC]*kT*kG*k[5mC]) [Compound 1074145]”, the “YAP1 (% UTC)” value was 73 % UTC.
In the case of “1075457 (antisense kA*kG*kT*dA*dA*dT*dA*dT*dG*dT*dA*d[5mC]*dA*kT*kG*kG) [Compound 1075457]”, the “YAP1 (% UTC)” value is reported as 5 % UTC.
In the case of “1076321 (k[5mC]*kA*kA*dT*dA*dT*d[5mC]*dA*d[5mC]*dT*dT*dG*dG*kG*k[5mC]*k[5mC]; antisense) [Compound 1076321]”, the “YAP1 (% UTC)” value is reported as 63 % UTC.
In the case of “1075425 (antisense kA*kT*kT*dA*dT*dT*dA*dA*dT*d[5mC]*d[5mC]*dT*dG*kT*k[5mC]*k[5mC]) [Compound 1075425]”, the “YAP1 (% UTC)” value is reported as 26 % UTC.
With “1075937 (kA*k[5mC]*kT*dT*dA*dT*dA*dT*dT*d[5mC]*dT*d[5mC]*dT*k[5mC]*k[5mC]*kG; antisense) [Compound 1075937]” the “YAP1 (% UTC)” value was 36 % UTC.

Same assay, conditions: Table 16; A-431 cells, 5,000 cells per well, free uptake, 2,000 nM, approximately 48 hours; RTS4814; normalized to RIBOGREEN; Yap1 mRNA relative to untreated control cells
With “1074466 (kA*k[5mC]*k[5mC]*dG*dA*d[5mC]*d[5mC]*d[5mC]*dT*dG*d[5mC]*d[5mC]*dA*kA*kA*kA; antisense) [Compound 1074466]” the “YAP1 (% UTC)” value was 32 % UTC.
“1076322 (kA*kT*kT*dT*dA*d[5mC]*dA*dA*dG*dT*dG*dA*dG*k[5mC]*kA*k[5mC]; antisense) [Compound 1076322]” was tested, and the “YAP1 (% UTC)” value was 21 % UTC.
With “1075682 (kG*kA*kT*dA*dA*dT*dT*dA*dT*dT*dA*d[5mC]*d[5mC]*k[5mC]*k[5mC]*kT; antisense) [Compound 1075682]” the “YAP1 (% UTC)” value was 35 % UTC.
“1075874 (k[5mC]*kT*kT*dA*dA*d[5mC]*dA*dA*d[5mC]*d[5mC]*d[5mC]*dT*dA*k[5mC]*kG*kA; antisense) [Compound 1075874]” was tested, and the “YAP1 (% UTC)” value was 113 % UTC.
In the case of “1074114 (kG*kA*kA*d[5mC]*dT*dT*dT*dT*dT*d[5mC]*d[5mC]*d[5mC]*dT*k[5mC]*k[5mC]*kA; antisense) [Compound 1074114]”, the “YAP1 (% UTC)” value is reported as 30 % UTC.
“1075202 (antisense kA*kA*kT*dT*dA*dT*dA*dT*dA*dA*dG*dG*d[5mC]*kT*kG*kT) [Compound 1075202]” was tested, and the “YAP1 (% UTC)” value was 26 % UTC.
“1075426 (antisense kG*kT*kA*dT*dT*dA*dT*dT*dA*dA*dT*d[5mC]*d[5mC]*kT*kG*kT) [Compound 1075426]” was tested, and the “YAP1 (% UTC)” value was 49 % UTC.
With “1074402 (antisense kT*kT*kA*dT*dG*dG*dA*dA*dA*dT*dT*dT*d[5mC]*k[5mC]*kG*kG) [Compound 1074402]” the “YAP1 (% UTC)” value was 25 % UTC.
“1074306 (antisense k[5mC]*k[5mC]*kT*d[5mC]*dA*d[5mC]*d[5mC]*dT*dG*d[5mC]*d[5mC]*dG*dA*kA*kG*k[5mC]) [Compound 1074306]” was tested, and the “YAP1 (% UTC)” value was 107 % UTC.
In the case of “1076066 (k[5mC]*kA*kT*dA*dT*dA*dA*dG*dA*dT*dG*dT*dT*kT*kG*k[5mC]; antisense) [Compound 1076066]”, the “YAP1 (% UTC)” value is reported as 8 % UTC.
For “1075522 (k[5mC]*kA*kA*dA*dT*d[5mC]*dG*dA*dG*dG*d[5mC]*dG*dA*kA*kT*k[5mC]; antisense) [Compound 1075522]”, the “YAP1 (% UTC)” value was 82 % UTC.

Same assay, conditions: Table 17; A-431 cells, 5,000 cells per well, free uptake, 2,000 nM, approximately 48 hours; RTS4814; normalized to RIBOGREEN; Yap1 mRNA relative to untreated control cells
For “1075971 (kT*kA*kT*dT*dA*dA*d[5mC]*dA*dT*dA*d[5mC]*d[5mC]*dT*k[5mC]*kA*kT; antisense) [Compound 1075971]”, the “YAP1 (% UTC)” value was 28 % UTC.
With “1074819 (kA*kA*kG*d[5mC]*dA*d[5mC]*dT*dG*dA*dA*dT*dA*dT*kT*kG*k[5mC]; antisense) [Compound 1074819]” the “YAP1 (% UTC)” value was 33 % UTC.
For “1074627 (antisense k[5mC]*k[5mC]*kT*dG*dT*dT*dA*dT*dG*dA*dA*d[5mC]*d[5mC]*k[5mC]*kT*kT) [Compound 1074627]”, the “YAP1 (% UTC)” value was 3 % UTC.
“1074147 (antisense kA*kG*kA*dA*dG*d[5mC]*dG*dG*d[5mC]*dG*dA*d[5mC]*dG*kG*k[5mC]*kT) [Compound 1074147]” was tested, and the “YAP1 (% UTC)” value was 23 % UTC.
For “1074851 (antisense kA*kT*kT*dG*dT*dT*dA*dT*dG*dA*dT*dA*dG*kG*k[5mC]*kA) [Compound 1074851]”, the “YAP1 (% UTC)” value was 6 % UTC.
For “1076163 (kG*kA*kT*dA*dT*dA*dA*dG*dT*dT*dA*d[5mC]*d[5mC]*kA*kA*kT; antisense) [Compound 1076163]”, the “YAP1 (% UTC)” value was 16 % UTC.

Same assay, conditions: Yap1 mRNA remaining as percent of untreated control; 3-10-3 cEt gapmers; A-431 cells; Table 36
“1075926 (antisense kG*kT*kA*dG*dA*dA*d[5mC]*d[5mC]*dT*dA*dT*dA*dT*kT*kA*kT) [compound 1075926]” was tested, and the “YAP1 (% UTC)” value was 25 % UTC.
For “1074582 (DNA kT*kA*kA*dA*d[5mC]*d[5mC]*dA*d[5mC]*dT*dA*dT*dA*dA*kA*kG*k[5mC]; antisense) [compound 1074582]”, the “YAP1 (% UTC)” value was 18 % UTC.
“1075542 (kT*kG*kA*dG*dA*dA*dA*dG*dG*dT*dT*d[5mC]*d[5mC]*kT*kG*kA; antisense) [compound 1075542]” was tested, and the “YAP1 (% UTC)” value was 66 % UTC.
For “1074646 (antisense kA*kA*kA*dT*dT*dG*dA*dA*dG*dG*dG*d[5mC]*d[5mC]*kA*kA*kA) [compound 1074646]”, the “YAP1 (% UTC)” value was 39 % UTC.
With “1074614 (DNA kT*k[5mC]*kA*dT*dA*dG*d[5mC]*dT*dT*dA*dT*dA*dT*kT*kG*kA; antisense) [compound 1074614]” the “YAP1 (% UTC)” value was 49 % UTC.
In the case of “1076438 (kT*kA*kG*dG*dA*dA*dG*dA*dA*dT*dA*dG*d[5mC]*kA*kT*k[5mC]; antisense) [compound 1076438]”, the “YAP1 (% UTC)” value is reported as 13 % UTC.
With “1076214 (kA*kT*k[5mC]*d[5mC]*dT*dA*dT*dA*d[5mC]*dA*dT*dT*dA*kA*kG*kA; antisense) [compound 1076214]” the “YAP1 (% UTC)” value was 67 % UTC.

Same assay, conditions: Yap1 mRNA remaining as percent of untreated control; 3-10-3 cEt gapmers; A-431 cells; Table 37
For “1075639 (antisense kA*kA*kT*dT*dA*dA*d[5mC]*d[5mC]*dA*dG*dA*dA*dG*k[5mC]*k[5mC]*kT) [compound 1075639]”, the “YAP1 (% UTC)” value was 101 % UTC.
With “1074583 (DNA kG*kT*kA*dA*dA*d[5mC]*d[5mC]*dA*d[5mC]*dT*dA*dT*dA*kA*kA*kG; antisense) [compound 1074583]” the “YAP1 (% UTC)” value was 30 % UTC.
In the case of “1075831 (kT*kA*kT*dT*dA*dG*d[5mC]*d[5mC]*dT*dT*d[5mC]*dT*dA*kA*k[5mC]*k[5mC]; antisense) [compound 1075831]”, the “YAP1 (% UTC)” value is reported as 59 % UTC.
In the case of “1076343 (antisense kA*kG*kA*d[5mC]*dT*dA*dA*dA*dT*d[5mC]*dT*dT*d[5mC]*k[5mC]*k[5mC]*kT) [compound 1076343]”, the “YAP1 (% UTC)” value is reported as 8 % UTC.
With “1076407 (antisense kG*kT*kA*dT*dT*dA*dT*dT*dT*dA*dA*dG*dA*k[5mC]*k[5mC]*kT) [compound 1076407]” the “YAP1 (% UTC)” value was 22 % UTC.
“1075575 (antisense kT*kT*kA*d[5mC]*dA*dA*d[5mC]*dA*d[5mC]*dA*dA*dG*dT*k[5mC]*kT*kA) [compound 1075575]” was tested, and the “YAP1 (% UTC)” value was 55 % UTC.
For “1074871 (kT*kG*kT*dA*dA*dG*dT*dA*d[5mC]*d[5mC]*dT*dA*dA*k[5mC]*kA*kT; antisense) [compound 1074871]”, the “YAP1 (% UTC)” value was 70 % UTC.
With “1074455 (k[5mC]*kA*kT*dT*dA*dT*dG*dT*dG*dA*d[5mC]*dT*dA*kA*kT*kG; antisense) [compound 1074455]” the “YAP1 (% UTC)” value was 67 % UTC.
With “1074167 (antisense k[5mC]*kG*k[5mC]*dA*d[5mC]*d[5mC]*d[5mC]*d[5mC]*d[5mC]*dT*dG*dA*d[5mC]*k[5mC]*k[5mC]*kA) [compound 1074167]” the “YAP1 (% UTC)” value was 58 % UTC.
For “1074967 (antisense kG*kA*k[5mC]*dA*dA*dA*dT*dT*dG*dA*dA*dG*dT*kG*kT*kT) [compound 1074967]”, the “YAP1 (% UTC)” value was 116 % UTC.
